Common to all, as to assay type: cell-based
For data set [1], the system named is HEKa (Human Epidermal Keratinocytes, adult) cells. The data set can be described thus: MTT viability assay (cytotoxicity) in HEKa cells. As to conditions: 0.001-0.1 mg/mL, 24 h, vs basal state. The protocol:
(§1) The cytotoxicity of peptide Pal-SEQ ID NO: 1-NH2 was analysed by means of viability assay in HEKa (Human Epidermal Keratinocytes, adult) and HDFa (Human Dermal Fibroblasts, adult) cells.
(§2) Cytotoxicity was assessed by means of the MTT assay. Briefly HEKa and HDFa cells were seeded in 96-well plates at a concentration of 1×10^5 cells/mL and incubated in Epilife Medium supplemented with 1% (v/v) EDGS and 1% (v/v) of Penicillin/Streptomycin (for HEKa cells) and Medium 106 supplemented with 2% (v/v) of Low Serum Growth Supplement (LSGS) (for HDFa cells) for 24 h at 37° C., 5% CO2 and saturated humidity. Cells were then treated with different concentrations of peptide Pal-SEQ ID NO: 1-NH2 (0.001 mg/mL, 0.005 mg/mL, 0.01 mg/mL, 0.05 mg/mL, and 0.1 mg/mL for HEKa cells; and 0.001 mg/mL, 0.005 mg/mL and 0.01 mg/mL for HDFa cells) in triplicates, for MTT evaluation. […] The plates were placed on a shaker for 5 minutes for complete solubilisation of the crystals and then the absorbance at 450 nm of each well was determined using the microplate reader Multiskan FC, which is directly proportional to the number of living cells in culture. Absorbance values were normalized using the data obtained for non-treated cells (basal state).

The subject of data set [2] is human organotypical skin explant cultures (hOSECs). In words: LDH cytotoxicity assay in human organotypical skin explant cultures. The protocol:
(§3) In this case healthy and aged human organotypical skin explant cultures (hOSECs) were used as experimental systems.
(§4) The aged hOSEC was obtained by exposition of the healthy hOSEC to hydrocortisone (5 μg/mL) for the first five days of the study.
The total number of treatment groups was as follows: • 1. Control group (negative control): Untreated hOSEC. • 2. Aged hOSEC: hOSECs treated with hydrocortisone at 5 μg/mL (Abraham A, Roga G. (2014) Topical steroid-damaged skin. Indian J Dermatol. 59(5), 456-9.) • 3. Aged hOSEC+Product A (cream, this is, placebo): hOSECs treated with hydrocortisone at 5 μg/mL and incubated with product A (10 μL). • 4. […]
The LDH Cytotoxicity test is a colorimetric assay that quantitatively measures lactate dehydrogenase (LDH), a stable cytosolic enzyme that is released into the culture medium supernatant upon damage of the cytoplasmic membrane. The released LDH in culture medium supernatants is measured for 30 minutes coupled enzymatic reaction: LDH oxidizes lactate to pyruvate which then reacts with the tetrazolium salt WST-1 to form formazan. The increase in the amount of formazan measured in the culture supernatant directly correlates to the increase in the number of lysed cells (damage) in the skin explant. […]
The results of this assay were calculated considering the negative control, this is, untreated hOSEC as 100% of the LDH normal concentration.

Data set [3] has as its system HDFa (Human Dermal Fibroblasts, adult) cells. The data set can be described thus: MTT viability assay (cytotoxicity) in HDFa cells. As to conditions: 0.001-0.01 mg/mL, 24 h, vs basal state. The protocol:
as §1, §2

Data set [4] concerns human organotypical skin explant cultures (hOSECs). In words: Resazurin assay in human organotypical skin explant cultures. As to conditions: 5 μg/mL. The protocol: as §3, §4
The total number of treatment groups was as follows: • 1. Control group (negative control): Untreated hOSEC. • 2. Aged hOSEC: hOSECs treated with hydrocortisone at 5 μg/mL (Abraham A, Roga G. (2014) Topical steroid-damaged skin. Indian J Dermatol. 59(5), 456-9.) • 3. Aged hOSEC+Product A (cream, this is, placebo): hOSECs treated with hydrocortisone at 5 μg/mL and incubated with product A (10 μL). • 4. Aged hOSEC+Product B (cream with Pal-SEQ ID NO: 1-NH2 at a concentration of 0.005 mg/mL): hOSECs treated with hydrocortisone at 5 μg/mL and incubated with Product B (10 μL).
The total duration of the assay was of 10 days (days 1 to 10). Hydrocortisone was applied in the appropriate or corresponding groups each day on days 1 to 5. […]
For the resazurin assay, the skin explants were treated with 6 μM of resazurin in NaCl solution for 1 hour. […] The resorufin formed was quantified in a fluorometer plate reader.
The fluorescent signal was monitored using 530-560 nm excitation wavelength and 590 nm emission wavelength.
The results of the resazurin assay were calculated considering the negative control, untreated healthy hOSECs, as 100% viability. […]

Where a SMILES comes first, the peptide text is derived from it. The star is where a group is joined. Palmitoyl = CCCCCCCCCCCCCCCC(=O)*

As for `CCCCCCCCCCCCCCCC(=O)N[C@@H](Cc1c[nH]cn1)C(=O)N[C@@H](Cc1ccc(O)cc1)C(=O)N[C@@H](CCCNC(=N)N)C(=O)N[C@@H](C)C(N)=O` [Pal-SEQ ID NO: 1-NH2, Pal-His-Tyr-Arg-Ala-NH2] (Palmitoyl-HYRA-NH2), the “viability of HEKa cells” value in data set [1] is reported as “did not alter viability”. Moreover, the “toxicity deduced from LDH cytotoxicity assay and resazurin assay” value in data set [2] (cream with 0.005 mg/mL peptide on aged hOSEC) is listed as “not toxic”. In data set [3], the “viability of HDFa cells” value is on record as “did not alter viability”.
With `C[C@]12CCC(=O)C=C1CC[C@@H]1[C@@H]2[C@@H](O)C[C@@]2(C)[C@H]1CC[C@]2(O)C(=O)CO` [hydrocortisone, reference compound], the “reduction of Resorufin percentage with respect to the Control group” value in data set [4] came to 10%. Further, the “adverse effect in hOSECs (LDH, plasma membrane damage)” value in data set [2] (hydrocortisone 5 μg/mL, days 1 to 5) is recorded as “did not produce any adverse effect”.

The record behind these values is patent US12161745B2, “Peptides and compositions for use in cosmetics” (LIPOTRUE, S.L., priority 2019, dated 2024).
